Experimental data from patent US20220228111A1, “NOCICEPTOR DIFFERENTIATION FROM HUMAN PLURIPOTENT STEM CELLS” (priority 2019, published 2022).
pIC50: −log10 of the molar value. Entries after “also recorded” stand apart in the source; their conditions may differ.

Tests used:
[1] = test system: iPSC-derived nociceptor-like cells; experiment: Multi-electrode array: stimulation of nociceptor-like cells by specific ligands; format: cell-based, human
Method: Functional analysis of nociceptors derived from iPSCs according to the procedure described in Example 1 was performed. Multi-electrode arrays were used for the electrophysiology characterization experiments.

[2] = test system: iPSC-derived nociceptor-like cells; experiment: Multi-electrode array: sensitization of nociceptor-like cells with temperature stimulation; format: cell-based, human; conditions: then 40° C., day 28
Description: FIGS. 12A and 12B illustrate the results of an electrophysiology experiment (multi-electrode array using Maestro Pro, Axion Biosystems) showing that iPSC-derived nociceptor-like cells were sensitized in response to treatment with oxaliplatin and prostaglandin E2 (PGE2). Oxaliplatin is a widely used chemotherapeutic drug that can damage sensory neurons of the peripheral nervous system and lead to peripheral neuropathy. PGE2 is used to model inflammatory pain. At day 28 of the procedure described in Example 1, the iPSC-derived nociceptor-like cells were recorded at 37° C. for 10 minutes for baseline recording, and then pre-treated with 0.1% DMSO, 50 μM Oxaliplatin or 1 μM PGE2 for 15 minutes at 37° C. The temperature was then increased to 40° C. to stimulate the cells, and recording was performed for another 10 minutes.

[3] = target: T1, purinergic receptor P2RX3 (Homo sapiens, UniProt P56373); experiment: Multi-electrode array: α,β-me-ATP stimulation and P2RX3 antagonist block in nociceptor-like cells; format: cell-based; conditions: 10 μM, day 28, multi-electrode array
T1 construct: iPSC-derived nociceptor-like cells were stimulated by application of 10 μM α,β-me-ATP, which is a known agonist for P2RX3 purinergic receptors; endogenous in cells; host or cells: iPSC-derived nociceptor-like cells, day 28 of differentiation
T1 sequence (P56373 1-397): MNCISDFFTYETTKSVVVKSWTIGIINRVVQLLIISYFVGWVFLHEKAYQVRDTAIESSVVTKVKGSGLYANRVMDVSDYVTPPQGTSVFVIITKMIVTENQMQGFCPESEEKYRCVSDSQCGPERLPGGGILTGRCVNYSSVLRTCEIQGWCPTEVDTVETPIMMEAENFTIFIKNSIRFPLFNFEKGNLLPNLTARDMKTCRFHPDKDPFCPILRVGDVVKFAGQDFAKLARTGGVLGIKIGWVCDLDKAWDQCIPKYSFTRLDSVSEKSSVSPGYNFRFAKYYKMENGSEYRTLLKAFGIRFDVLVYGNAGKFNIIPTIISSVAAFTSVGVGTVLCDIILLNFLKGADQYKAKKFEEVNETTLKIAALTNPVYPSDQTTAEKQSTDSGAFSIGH
Method: At day 28 of the procedure described in Example 1, the iPSC-derived nociceptor-like cells were pre-treated with 0.1% DMSO or 10 μM of each known antagonist of purinergic receptor P2RX3 for 30 minutes at 37° C. The cells were then stimulated by 10 μM α,β-me-ATP, and recordings were performed using multi-electrode.

cellular target = conditions: cited from earlier work; for pIC50: as described in Sidrauski et al.

C=CCN=C=S [mustard oil, allyl isothiocyanate]
response: frequency of firing action potentials ([1]; 100 μM): increasing the frequency of firing action potentials; also recorded: stimulated

O=C1[O][Pt]2([NH][C@@H]3CCCC[C@H]3[NH]2)[O]C1=O [oxaliplatin]
sensitization of nociceptor-like cells ([2]; 50 μM pre-treatment 15 minutes at 37° C.): sensitized

Nc1ncnc2c1ncn2[C@@H]1O[C@H](COP(=O)(O)CP(=O)(O)OP(=O)(O)O)[C@@H](O)[C@H]1O [α,β-me-ATP]
response: frequency of firing action potentials ([1]; 10 μM): increasing the frequency of firing action potentials; also recorded: stimulated | stimulation of nociceptor-like cells [3]: stimulated

CCCCC[C@H](O)/C=C/[C@H]1[C@H](O)CC(=O)[C@@H]1C/C=C\CCCC(=O)O [PGE2, prostaglandin E2]
sensitization of nociceptor-like cells ([2]; 1 μM pre-treatment 15 minutes at 37° C.): sensitized

O=C(COc1ccc(Cl)cc1)N[C@H]1CC[C@H](NC(=O)COc2ccc(Cl)cc2)CC1 [trans-ISRIB, N,N′-((1r,4r)-cyclohexane-1,4-diyl)bis(2-(4-chlorophenoxy)acetamide)]
pIC50 (cellular target): 8.30 | fold more potent than cis-ISRIB (cellular target; trans-ISRIB vs cis-ISRIB): 100 fold

COc1cc(CNC(=O)CCCC/C=C/C(C)C)ccc1O [capsaicin]
response: frequency of firing action potentials ([1]; 5 μM): increasing the frequency of firing action potentials; also recorded: stimulated

O=C(COc1ccc(Cl)cc1)NC1CCC(NC(=O)COc2ccc(Cl)cc2)CC1 (stereo not drawn) [cis-ISRIB]
pIC50 (cellular target): 6.22
